Reference: patent US20050238619A1, “Method for the delivery of sustained release agents” (priority 2004, published 2005)

Key:
[1] = Fluorescein retention in RF ablated bovine liver, washed in PBS and photographed under UV light; format: in vitro ADME; conditions: ablated bovine liver bivalved, agitated in 1 L PBS exchanged daily; photographed under UV light; FIG. 1
Description: Bovine liver was ablated, injected multiple times with fluorescein. […] The PBS was exchanged daily for two weeks. At weekly intervals, the ablated tissue was photographed under ultraviolet (UV) light. […] This approach can be used to help train and assess people to use the technique.

[2] = Fluorescein retention by RF ablated bovine liver versus number of injections (fluorimeter); format: in vitro ADME; conditions: total volume 0.5 mL, tissue washed over 10 minutes, FIG. 2
Procedure: Ablated bovine liver, prepared as in Example 1, was injected 3, 10, or 30 times with fluorescein (total volume of 0.5 mL). The tissue was extensively washed over 10 minutes; and the retained fluorescein was calculated as a percentage of the total injected fluorescein. To quantify the retained fluorescein, the washed tissue was homogenized, centrifuged and the supernatant assessed for fluorescein using a fluorimeter with excitation and emission filters of 485 nm and 525 nm, respectively.

[3] = Release of fluorescein from RF ablated bovine liver tissue; format: in vitro ADME; conditions: FIG. 3
Description: To determine the rate of fluorescein release, bovine liver was ablated with RF and injected with fluorescein. […] However, after one week of continued washing, the ablated tissue still contained greater than 50% of the original fluorescein.

[4] = Fluorescein retention in RF ablated subcutaneous Ras-6 tumors in vivo; set-up: species or system Balb/c female mice; conditions: Ras-6 flank tumors, RFA, 50 μl fluorescein in 1 to 3 injections; FIG. 4
Procedure: Balb/c female mice were injected with 10^6 Ras-6 tumor cells in the flank. The Ras-6 tumor was derived by transfection of a p53-null BALB/c murine embryo fibroblast line with a mutant ras gene. Once the tumors reached 0.5-1 cm in size, the animals were placed under general anesthesia; and the tumors was ablated using a 0.7 cm multi-tined probe. RFA was accomplished by starting with 1-3 watts of power and increasing the power every 30 seconds. A special resistor circuit was placed in the circuit to avoid a low resistance default interrupt error built into the RFA generator. Following RFA, the tumors were injected with a total volume of 50 μl of fluorescein using 1 to 3 injections. At various intervals, the animals were sacrificed and the retained fluorescein assessed. FIG. 4 depicts the residual fluorescein after 1, 3, and 8 days. Consistent with the ex vivo studies, the amount of fluorescein decreases over this time interval; however, substantial fluorescein remains in the ablated tumor for ar least 8 days in vivo.

[5] = Fluorescein retention in RF ablated hepatic tumors in clinical studies, estimated from serial urine samples; format: in vivo, patients; conditions: patient 1, after 12 days; 1 ml of 10% fluorescein (100 mg), 20 injections; estimated 2 L urine/day; FIG. 6
Procedure: Six patients with unresectable hepatic metastases or hapatocellular carcinoma were enrolled in the Internal Review Board approved protocol following the process of informed consent. Eligibility required that the patient receive RFA for therapeutic intent. RFA was performed using a RadioTherapeutics® device according to their specifications. Subsequently, 1 ml of 10% fluorescein was injected into the ablated tissue (20 different injections).
Because 98% of fluorescein is excreted in the urine, the amount of released and retained fluorescein could be estimated from serial urine sample. Serially, first morning void urine samples were collected and assessed for fluorescein. The retained fluorescein was calculated by subtracting the estimated excreted fluorescein (measured fluorescein (mg/mL)×estimated 2 L urine/day volume) from the total injected fluorescein (100 mg).

[6] = general statement used as the basis of the calculation; cited from earlier work

With `O=C1OC2(c3ccc(O)cc3Oc3cc(O)ccc32)c2ccccc21` [fluorescein] the “time fluorescein was detected within the ablated tissue” value [1] was “at least two weeks”, the “retained fluorescein as a percentage of the total injected fluorescein” value (shortened to “retained fluorescein as a percentage”) ([2]; 3 injections) was 41% and the “retained fluorescein as a percentage” value ([2]; 10 injections) was 49%. For the same compound, the “retained fluorescein as a percentage” value ([2]; 30 injections) was “about 65%”, the “course of released fluorescein” value ([3]; RF ablated bovine liver, continued washing) was “exponential decline” and the “fluorescein still contained in the ablated tissue, of the original fluorescein” value ([3]; after one week of continued washing) was “greater than 50%”. The “time substantial fluorescein remains in the ablated tumor in vivo” value [4] was no less than 8 days, the “calculated fluorescein retained in the ablated tumor” value [5] was “greater than 90%” and the “fluorescein excreted in the urine” value [6] was 98%.
